Laboratory results as given in patent publication US8835476B2, “Synthesis of novel antimicrobials” (priority 2005, dated 2014).

Experiments:
recombinant E. coli LpxA = biological target: T1, recombinant E. coli LpxA (Escherichia coli, UniProt P0A722); assay: LpxA assay: acyl-UDP-GlcNAc formation from UDP-[3H]GlcNAc, TLC; type: biochemical; conditions: for inhibition at 5000 µM: 5 mM compound, FIG. 8
T1 construct: 6xHis (C); made in house; host or cells: E. coli BL21 (pET23b)
Description: The lpxA gene was amplified from an E. coli genomic library and inserted into a pET23b vector using standard recombinant DNA methodology. The 5′ oligonucleotide for amplification of the LpxA open reading frame was 5′-[…]-3′ (SEQ ID NO. 1) and contains a BamHI restriction enzyme site upstream of the LpxA ATG start codon and the 3′ oligonucleotide was 5′-[…]-3′ (SEQ ID NO. 2) and contains a XhoI restriction enzyme site downstream of the final codon of the LpxA open reading frame. Primers were custom synthesized. The primers were designed such that digestion of the amplification product would result in addition of a C-terminal 6×-His tag in frame with the LpxA open reading frame. Specifically, E. coli genomic DNA was isolated and an amplification reaction was carried out as follows: 33 μl water, 5 μl 10× reaction buffer, 1.5 μl of 50 mM magnesium sulfate, 3 μl of 10 mM dNTPs, 3 μl of a 50 μM solution of the 5′ LpxA primer, 3 μl of a 50 μM solution of the 3′ LpxA primer, 0.5 μl of E. coli genomic DNA solution, and 1 μl of polymerase. The reaction conditions were as follows: 94° C. for 2 minutes; followed by 30 cycles of 94° C. for 30 seconds, 50° C. for 30 seconds, 68° C. for 1.5 minutes, followed by an extension at 68° C. for 7 minutes. The resulting LpxA product was separated from other DNA on a 0.8% agarose gel and isolated from the gel. The LpxA open reading frame was cloned into a topoisomerase I-activated vector and transformed into E. coli. […] The newly synthesized plasmid containing the BamHI- and XhoI-flanked LpxA open reading frame and plasmid pET23a were digested with BamHI and XhoI at 37° C. for 2 hours, DNA was separated by agarose gel electrophoresis, isolated from the gel, and ligated. Ligation reactions were transformed into chemically competent E. coli and plasmid DNA was isolated. Restriction mapping was performed to determine which plasmids contained the LpxA open reading frame. To remove the T7 epitope coding sequence from the 5′end of the LpxA open reading frame, the pET23a plasmid containing the LpxA open reading frame was digested with the restriction enzymes BamHI and XhoI and a pET23b plasmid was digested with BglII and XhoI, DNA was separated by agarose gel electrophoresis, isolated from the gel, and ligated. Ligation reactions were transformed into chemically competent E. coli and plasmid DNA was isolated. Restriction mapping was performed to assess plasmids containing the LpxA open reading frame.
A 5 ml culture of E. Coli BL21 cells expressing the LpxA-6×His plasmid was grown overnight at 37° C. in LB medium containing 50 μg/ml ampicillin and 34 μg/ml chloramphenicol, then subcultured into 500 ml of the same medium and grown at 37° C. until A600=0.6. LpxA expression was induced by addition of 0.5 mM IPTG for three hours. The cells were centrifuged at 7 000×g for 10 minutes at 4° C. and lysed using a mild, nonionic detergent. The soluble fraction containing LpxA was added to 1 ml of nickel affinity resin in a 15 ml Falcon tube; the resin was washed extensively with extraction/wash buffer (50 mM Na-phosphate (pH 7.0) and 300 mM NaCl) prior to use. This mixture was incubated on a rotating platform at low speed for 20 minutes at room temperature. The resin was centrifuged at 1000 rpm in a bench top centrifuge for 2 min, washed twice (10 min each) with 10 ml of extraction/wash buffer, resuspended in 10 ml of extraction/wash buffer, and transferred to a 10 ml polypropylene disposable protein purification column. The column was eluted with 5 ml of 50 mM Na-phosphate (pH 7.0) containing 300 mM NaCl and 150 mM imidazole, collected in 1 ml fractions. The eluate was analysed by SDS-PAGE and was visualised using a protein stain (FIG. 7 inset).
Recombinant Vibrio harveyi acyl carrier protein was prepared from a GST fusion protein as described previously (Flaman et al., 2001). […]

E. coli BL21 cells = assay: Inhibition of E. coli growth in liquid culture (OD 600 nm); type: cell-based; conditions: for growth inhibitory activity, E. coli liquid culture: only at the highest concentration tested (1 mM); for growth inhibitory activity, E. coli liquid culture / growth of E. coli in liquid culture: FIG. 11
Procedure: Compounds to be tested were dissolved in ethanol or DMSO and subsequently diluted into of Luria broth. The final concentration of ethanol (2%, v/v) or DMSO (1%, v/v) had minimal effect on growth rate. Culture tubes were subsequently inoculated with E. coli BL21 or D22 cells to an optical density (at 600 nm) of 0.01 and incubated on a rotary shaker at 37° C. The optical density at 600 nm of 100 μl samples was measured at indicated time points.

[1] = system: LPS synthesis in E. coli strain D22; assay: In vivo LPS synthesis: [3H]galactose incorporation into acid-precipitable material; type: cell-based; conditions: 0.1 mM, FIG. 10B
Procedure: LpxA catalyzes the first step in the synthesis of lipid A (the hydrophobic anchor of LPS), which is essential for the growth and pathogenesis of many gram-negative bacteria. The inhibition of LpxA activity would therefore result in decreased synthesis of LPS. To measure the synthesis of LPS in vivo, the incorporation of radiolabelled galactose into acid-precipitable material was determined. The E. coli strain used for these studies was D22 (obtained from the E. coli Genetic Stock Center), which contains a mutation in the LpxC gene (lpxC101; Normark et al., 1969, J Bacteriol 97, 1334). Strains harbouring this mutation have an increased susceptibility to antibiotics, in addition to producing approximately 30% less LPS (Grundstrom et al., 1980, J Bacteriol 144, 884.). Bacteria were grown in Luria broth to early-log phase, at which point, 500 μl was transferred to a culture tube containing 1 μl of [^3H]galactose (final concentration, 0.2 mM, 20 μCi/μmol) and mixed. Cultures were incubated at 30° C. for 75 minutes with shaking at 220 rpm. Incorporation was terminated by adding 400 μl of labelled culture to 44.4 μl of 100% trichloroacetic acid (TCA, 10% final concentration) in a 1.5 ml microcentrifuge tube. Tubes were vortexed, incubated on ice for 30 minutes, then centrifuged at 14 000 rpm for 5 minutes at room temperature. The pellet was rinsed twice with 1 ml of ice-cold 10% TCA, resuspended in 50 μl of formic acid, and transferred to a scintillation vial for counting.
Compounds to be tested were dissolved in DMSO and added to the bacterial culture prior to labelling with galactose, and LPS synthesis was determined as described previously. The final concentration of DMSO (1%, v/v) had minimal effect on LPS synthesis.

T1 sequence (P0A722 whole entry): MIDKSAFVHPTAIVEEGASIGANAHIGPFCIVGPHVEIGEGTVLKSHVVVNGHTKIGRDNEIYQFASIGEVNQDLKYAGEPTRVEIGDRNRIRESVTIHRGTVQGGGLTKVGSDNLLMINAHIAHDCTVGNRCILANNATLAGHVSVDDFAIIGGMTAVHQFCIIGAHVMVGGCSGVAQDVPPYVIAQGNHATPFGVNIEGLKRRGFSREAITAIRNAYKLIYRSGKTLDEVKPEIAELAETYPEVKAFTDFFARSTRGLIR

Row | Structure (SMILES) | melting point [°C] | inhibition at 5000 µM (recombinant E. coli LpxA) [%] | further results
1 | COC(=O)c1cc(-c2nnn(C)n2)c(C(=O)OC)s1 [DNM-114, 3-(2-methyl-2H-tetrazol-5-yl)-thiophene-2,5-dicarboxylic acid dimethyl ester] | 121 to 122 | – | –
2 | Cn1nnc(-c2cc(C(=O)O)sc2-c2ccc(F)cc2)n1 [DNM-123, 5-(4-fluorophenyl)-4-(2-methyl-2H-tetrazol-5-yl)thiophene-2-carboxylic acid] | – | > 80 | inhibition at 500 µM (recombinant E. coli LpxA; 500 μM, FIG. 9): ~60%; growth inhibitory activity, E. coli liquid culture (E. coli BL21 cells): Substantial growth inhibitory activity
3 | CCOC(=O)c1cc(-c2nnn[nH]2)c(-c2ccc(F)cc2)s1 [DNM-124, 5-(4-Fluoro-phenyl)-4-(1H-tetrazol-5-yl)-thiophene-2-carboxylic acid ethyl ester] | – | > 80 | growth inhibitory activity, E. coli liquid culture (E. coli BL21 cells): Substantial growth inhibitory activity
4 | CCOC(=O)c1cc(-c2nnn(C)n2)c(-c2ccc(F)cc2)s1 [DNM-125, ethyl 5-(4-fluorophenyl)-4-(2-methyl-2H-tetrazol-5-yl)thiophene-2-carboxylate] | 108 to 110 | – | –
5 | Fc1ccc(-c2cc(-c3nnn[nH]3)c(-c3ccc(F)cc3)s2)cc1 [DNM-131, 5-(2,5-Bis(4-fluorophenyl)thiophen-3-yl)-1H-tetrazole] | – | > 80 | inhibition of LpxA activity (recombinant E. coli LpxA; concentrations above 500 μM, FIG. 9): almost complete inhibition; decrease of LPS synthesis [1]: approximately 70%; growth of E. coli in liquid culture (E. coli BL21 cells; 10 μM): partial inhibition; growth of E. coli in liquid culture (E. coli BL21 cells; 0.1 or 1 mM): no growth
6 | Cn1nnc(-c2cc(-c3ccc(F)cc3)sc2-c2ccc(F)cc2)n1 [DNM-132, 5-(2,5-bis(4-fluorophenyl)thiophen-3-yl)-2-methyl-2H-tetrazole] | 150 to 152 | – | –
7 | O=C(O)c1sc(-c2ccc(F)cc2)cc1-c1nnn[nH]1 [DNM-141, 5-(4-Fluoro-phenyl)-3-(1H-tetrazol-5-yl)-thiophene-2-carboxylic acid] | – | > 80 | growth inhibitory effect, E. coli liquid culture (E. coli BL21 cells; concentrations tested in FIG. 11): no apparent effect
8 | Cn1nnc(-c2cc(-c3ccc(F)cc3)sc2C(=O)O)n1 [DNM-142, 5-(4-Fluoro-phenyl)-3-(2-methyl-2H-tetrazol-5-yl)-thiophene-2-carboxylic acid] | – | > 70 | –
9 | COC(=O)c1sc(-c2ccc(F)cc2)cc1-c1nnn(C)n1 [DNM-144, 5-(4-fluoro-phenyl)-3-(2-methyl-2H-tetrazol-5-yl)-thiophene-2-carboxylic acid methyl ester] | 131.5 to 132.5 | – | –
